The source of these data is the supplement of paper PMC11061612.

Holding throughout (experiment): Bliss excess, mean over the matrix (fraction); higher = more synergy
In test [1] the test system is TYK-nu (Ovarian Carcinoma). Summed up:
(§1)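 After 24 hours at 37°C and 5% CO2 in 1536-well plates, cells in DMEM/F12 or RPMI plus 10% FBS received two-drug dose matrices for 72 hours. Viability came from CellTiter-Glo 2.0 luminescence and was scaled as inhibition, anchored at 0 by vehicle wells and at 1 by blank wells. Combination Emax is taken as the second-highest inhibition in the matrix, and Bliss excess as the observed combination effect less EA + EB − EA·EB, with EA and EB the single-agent effects.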

Test [2] relates to SKN-3 (Head and Neck Carcinoma). In a few lines:
as §1

The test system of test [3] is SLVL (B-Cell Non-Hodgkin's Lymphoma). In a few lines: as §1
Test [4] has as its system SW948 (Colorectal Carcinoma). Summed up: as §1
Test [5] relates to 647-V (Bladder Carcinoma). In a few lines:
as §1

A further test deals with H4 (Low Grade Glioma). Summed up: as §1
The subject of test [6] is EFM-192A (Breast Carcinoma). Summed up: as §1
In a further test the test system is MSTO-211H (Mesothelioma). Summed up: as §1
The test system of test [7] is WSU-DLCL2 (B-Cell Non-Hodgkin's Lymphoma). Summed up: as §1
In a further test the test system is A172 (Glioblastoma). Summed up: as §1
Test [8] concerns KG-1 (Acute Myeloid Leukemia). Summed up:
as §1

For another test, the system named is D-392MG (Glioblastoma). In a few lines:
as §1

The subject of test [9] is SW48 (Colorectal Carcinoma). In a few lines:
as §1

The subject of test [10] is YT (Other Blood Carcinomas). In a few lines:
as §1

For test [11], the system named is SNU-61 (Colorectal Carcinoma). Summed up:
as §1

A further test relates to HuO9 (Osteosarcoma). In a few lines:
as §1

Test [12] concerns PA-TU-8902 (Pancreatic Carcinoma). Summed up:
as §1

A further test concerns EW-22 (Ewing's Sarcoma). Summed up: as §1
For test [13], the system named is U-118-MG (Low Grade Glioma). In a few lines:
as §1

Test [14] concerns NOMO-1 (Acute Myeloid Leukemia). In a few lines:
as §1

As for `CC1(C)CCC(CN2CCN(c3ccc(C(=O)NS(=O)(=O)c4ccc(NCC5CCOCC5)c([N+](=O)[O-])c4)c(Oc4cnc5[nH]ccc5c4)c3)CC2)=C(c2ccc(Cl)cc2)C1` [Venetoclax] + C[C@@H]1COCCN1C2=NC(=NC(=C2)C3(CC3)[S@](=N)(=O)C)C4=C5C=CNC5=NC=C4 [AZD6738] (first compound max 1 µM, 7x7, partner max 10 µM), the Bliss excess is -0.0315 in test [1]; -0.043 in test [2]; -0.0162 in test [3]; -0.0835 in test [4]; -0.0317 in test [5]; -0.0301 in the test on H4 (Low Grade Glioma). In addition, the Bliss excess is -0.0377 in test [6]; -0.0344 with MSTO-211H (Mesothelioma); 0.0423 in test [7]; -0.0141 in the test on A172 (Glioblastoma); 0.075 in test [8]; -0.0807 with D-392MG (Glioblastoma). The Bliss excess was -0.0398 in test [9]; 0.0174 in test [10]; 0.0295 in test [11]; 0.0275 with HuO9 (Osteosarcoma); -0.0236 in [12]; -0.0189 with EW-22 (Ewing's Sarcoma). For the same compound, the Bliss excess in [13] is -0.0106; in [14] it was 0.015.
On to `NC1(C(=O)N[C@@H](CCO)c2ccc(Cl)cc2)CCN(c2ncnc3[nH]ccc23)CC1` [Capivasertib] + C[C@@H]1COCCN1C2=NC(=NC(=C2)C3(CC3)[S@](=N)(=O)C)C4=C5C=CNC5=NC=C4 [AZD6738] (first compound max 10 µM, 7x7, partner max 10 µM), for which the Bliss excess in [1] was -0.109; in [2], -0.0564; in test [3] it was -0.0936; in test [4] it was -0.102; in test [5], -0.0386; in the test with H4 (Low Grade Glioma), -0.0667. The Bliss excess in [6] is -0.0546; in the test with MSTO-211H (Mesothelioma) it was -0.0088; in test [7], -0.0088; in the test with A172 (Glioblastoma) it was -0.0106; in test [8] it was -0.026; in the test on D-392MG (Glioblastoma), -0.0393. Also, the Bliss excess in test [9] is -0.0387; in test [10], -0.0249; in [11], -0.0316; with HuO9 (Osteosarcoma), -0.0535; in [12] it was 0.0247; in the test with EW-22 (Ewing's Sarcoma), -0.0047. In addition, the values for the Bliss excess in test [13] and in test [14] were -0.0276 and -0.0579, respectively.
On to `CC1(C)CCC(CN2CCN(c3ccc(C(=O)NS(=O)(=O)c4ccc(NCC5CCOCC5)c([N+](=O)[O-])c4)c(Oc4cnc5[nH]ccc5c4)c3)CC2)=C(c2ccc(Cl)cc2)C1` [Venetoclax] + C1CN(CCC1(C(=O)N[C@@H](CCO)C2=CC=C(C=C2)Cl)N)C3=NC=NC4=C3C=CN4 [Capivasertib] (first compound max 1 µM, 7x7, partner max 3 µM), for which the Bliss excess in [1] was -0.0343; in test [2], -0.033; in test [3] it was -0.0284; in [4], -0.0718; in test [5], -0.0247; in the test with H4 (Low Grade Glioma), -0.0366. In addition, the Bliss excess in test [6] is -0.046; with MSTO-211H (Mesothelioma), -0.0496; in test [7], 0.0415; with A172 (Glioblastoma), -0.0461; in test [8] it was 0.041; in the test with D-392MG (Glioblastoma) it was -0.0437. The Bliss excess in test [9] was -0.0679; in [10] it was 0.0073; in test [11], -0.0321; with HuO9 (Osteosarcoma), -0.0237; in test [12] it was -0.0752; in the test with EW-22 (Ewing's Sarcoma) it was 0.0137. The Bliss excess was -0.0494 in test [13] and -0.0342 in test [14].
In the case of `Cc1c2c(nn1C)CSCc1cc(n(C)n1)CSc1cc(c3ccccc3c1)OCCCc1c(C(=O)O)n(C)c3c-2c(Cl)ccc13` [AZD5991] + C1CN(CCC1(C(=O)N[C@@H](CCO)C2=CC=C(C=C2)Cl)N)C3=NC=NC4=C3C=CN4 [Capivasertib] (first compound max 1 µM, 7x7, partner max 3 µM), the Bliss excess in test [1] was 0.0172; in [2], -0.0285; in test [3] it was 0.004; in test [4], 0.0308; in test [5], -0.0059; with H4 (Low Grade Glioma) it was 0.0378. Besides, the Bliss excess in [6] was 0.0579; with MSTO-211H (Mesothelioma), -0.0066; in test [7], 0.013; with A172 (Glioblastoma) it was -0.0001; in test [8], -0.0164; in the test with D-392MG (Glioblastoma) it was 0.0557. In addition, the Bliss excess in test [9] was -0.034; in test [10], -0.0466; in test [11], -0.0174; in the test with HuO9 (Osteosarcoma), 0.0085; in [12], -0.041; in the test with EW-22 (Ewing's Sarcoma), 0.0007. Also, the Bliss excess is -0.0205 in test [13] and 0.0814 in test [14].
For the compound `COc1nnc2ccc(N3CCC(c4ccc(OCCN5CCN(C)C(=O)[C@H]5C)cc4)CC3)nn12` [AZD5153] + C[C@@H]1COCCN1C2=NC(=NC(=C2)C3(CC3)[S@](=N)(=O)C)C4=C5C=CNC5=NC=C4 [AZD6738] (first compound max 1 µM, 7x7, partner max 10 µM), the Bliss excess in test [1] was -0.0386; in [2], 0.0128; in [3], -0.13; in test [4] it was -0.0493; in test [5] it was 0.029; with H4 (Low Grade Glioma) it was -0.0081. The Bliss excess in test [6] is 0.0551; in the test with MSTO-211H (Mesothelioma), -0.0354; in test [7], -0.0467; in the test on A172 (Glioblastoma), -0.0059; in [8], 0.0159; in the test on D-392MG (Glioblastoma), -0.0033. Further, the Bliss excess in [9] was -0.109; in [10] it was -0.0687; in test [11] it was 0.0459; with HuO9 (Osteosarcoma), 0.031; in test [12] it was 0.0565; with EW-22 (Ewing's Sarcoma), -0.0258. The results for the Bliss excess in test [13] and in [14] were 0.0267 and -0.0324, respectively.
Regarding `COc1nnc2ccc(N3CCC(c4ccc(OCCN5CCN(C)C(=O)[C@H]5C)cc4)CC3)nn12` [AZD5153] + CC1(C)CCC(CN2CCN(c3ccc(C(=O)NS(=O)(=O)c4ccc(NCC5CCOCC5)c([N+](=O)[O-])c4)c(Oc4cnc5[nH]ccc5c4)c3)CC2)=C(c2ccc(Cl)cc2)C1 [Venetoclax] (first compound max 1 µM, 7x7, partner max 1 µM), the Bliss excess in test [1] was -0.0887; in [2], -0.0576; in test [3], -0.0277; in test [4], -0.0016; in test [5], -0.0455; with H4 (Low Grade Glioma), 0.033. Also, the Bliss excess in test [6] was -0.0257; with MSTO-211H (Mesothelioma), -0.111; in test [7] it was 0.0805; with A172 (Glioblastoma), -0.0363; in test [8], 0.163; with D-392MG (Glioblastoma), -0.0961. In addition, the Bliss excess in test [9] was -0.0081; in [10] it was -0.0496; in test [11], -0.0374; in the test with HuO9 (Osteosarcoma), -0.0198; in [12], -0.0908; in the test on EW-22 (Ewing's Sarcoma) it was -0.0176. Also, the Bliss excess in test [13] is -0.0349; in [14] it was 0.0051.
